This is an account of results in patent publication US20100311759A1, “ANTIPARASITIC AGENT FOR FISH AND METHOD OF CONTROLLING PROLIFERATION OF FISH PARASITES” (NIPPON SUISAN KAISHA, LTD., priority 2007, published 2010).

The test system of test [1] is Cryptocaryon irritans. Description: Examples 3 and 4: oral administration of single inhibitors and a combination, body length of Cryptocaryon irritans on Pagrus major (FIG. 4). The note with it: 60 parasites per plot, P≦0.01. Format: in vivo. An excerpt: During the rearing period, 1.4 liters/min. of seawater was supplied. […] After exposure, seven fish each were moved into six 100-liter aquariums. During the rearing period, 1.4 liters/min. of seawater was supplied.

For test [2], the system named is Cryptocaryon irritans. Description: Example 1: oral administration against parasitism of Cryptocaryon irritans on Pagrus major (1). The note with it: 50 mg trimethoprim/kg body weight/day orally three days; three days after the exposure.
Where [3] appears, read: 60 mg/kg fish body weight/day for three days.
Where [4] appears, read: 300 mg/kg fish body weight/day for three days.

As to `N=C(N)c1ccc(OCCCCCOc2ccc(C(=N)N)cc2)cc1.O=S(=O)(O)CCO.O=S(=O)(O)CCO` [PMD, isethionic acid pentamidine salt], the “growth rate of parasites (body length as percentage of control plot), difference from control plot” value in the test with Cryptocaryon irritans [1] (setting [3]) was “statistically significant difference”.

For the compound `CN(Cc1cnc2nc(N)nc(N)c2n1)c1ccc(C(=O)N[C@@H](CCC(=O)O)C(=O)O)cc1` [methotrexate], the “growth rate of parasites (body length as percentage of control plot), difference from control plot” value with Cryptocaryon irritans [1] (setting [3]) is “statistically significant difference”.

For `COc1cc(NS(=O)(=O)c2ccc(N)cc2)nc(OC)n1` [sulfadimethoxine], the “growth rate of parasites (body length as percentage of control plot), difference from control plot” value with Cryptocaryon irritans [1] (setting [4]) was “statistically significant difference”.

`Cc1ccnc(NS(=O)(=O)c2ccc(N)cc2)n1` [sulfamerazine]: the “growth rate of parasites (body length as percentage of control plot), difference from control plot” value with Cryptocaryon irritans [1] (setting [4]) was “statistically significant difference”.

As to `Cc1nnc(NS(=O)(=O)c2ccc(N)cc2)s1` [sulfamethizole], the “growth rate of parasites (body length as percentage of control plot), difference from control plot” value in the test with Cryptocaryon irritans [1] (setting [4]) is given as “statistically significant difference”.

In the case of `COc1cc(NS(=O)(=O)c2ccc(N)cc2)ncn1` [sulfamonomethoxine], the “growth rate of parasites (body length as percentage of control plot), difference from control plot” value with Cryptocaryon irritans [1] (setting [4]) is recorded as “statistically significant difference”.

As to `Cc1cc(NS(=O)(=O)c2ccc(N)cc2)nc(C)n1` [sulfisomidine], in the test on Cryptocaryon irritans [1] (setting [4]), the “growth rate of parasites (body length as percentage of control plot), difference from control plot” value was “statistically significant difference”.

As to `COc1cc(Cc2cnc(N)nc2N)cc(OC)c1OC` [trimethoprim], the “growth rate of parasites (body length as percentage of control plot), difference from control plot” value with Cryptocaryon irritans [1] (setting [3]) was “statistically significant difference”. Further, the “number of parasites (left gills, FIG. 1, control plot = one)” value in the test on Cryptocaryon irritans [2] is listed as “tend to be large”.

Regarding sulfisozole, the “growth rate of parasites (body length as percentage of control plot), difference from control plot” value with Cryptocaryon irritans [1] (setting [4]) is “statistically significant difference”.
